pIC50: −log10 of the molar value. Structures can show the parent of a compound that is named as a salt.

Chain of PI3Kδ (p110δ/p85α) (O00329 whole entry, species assumed): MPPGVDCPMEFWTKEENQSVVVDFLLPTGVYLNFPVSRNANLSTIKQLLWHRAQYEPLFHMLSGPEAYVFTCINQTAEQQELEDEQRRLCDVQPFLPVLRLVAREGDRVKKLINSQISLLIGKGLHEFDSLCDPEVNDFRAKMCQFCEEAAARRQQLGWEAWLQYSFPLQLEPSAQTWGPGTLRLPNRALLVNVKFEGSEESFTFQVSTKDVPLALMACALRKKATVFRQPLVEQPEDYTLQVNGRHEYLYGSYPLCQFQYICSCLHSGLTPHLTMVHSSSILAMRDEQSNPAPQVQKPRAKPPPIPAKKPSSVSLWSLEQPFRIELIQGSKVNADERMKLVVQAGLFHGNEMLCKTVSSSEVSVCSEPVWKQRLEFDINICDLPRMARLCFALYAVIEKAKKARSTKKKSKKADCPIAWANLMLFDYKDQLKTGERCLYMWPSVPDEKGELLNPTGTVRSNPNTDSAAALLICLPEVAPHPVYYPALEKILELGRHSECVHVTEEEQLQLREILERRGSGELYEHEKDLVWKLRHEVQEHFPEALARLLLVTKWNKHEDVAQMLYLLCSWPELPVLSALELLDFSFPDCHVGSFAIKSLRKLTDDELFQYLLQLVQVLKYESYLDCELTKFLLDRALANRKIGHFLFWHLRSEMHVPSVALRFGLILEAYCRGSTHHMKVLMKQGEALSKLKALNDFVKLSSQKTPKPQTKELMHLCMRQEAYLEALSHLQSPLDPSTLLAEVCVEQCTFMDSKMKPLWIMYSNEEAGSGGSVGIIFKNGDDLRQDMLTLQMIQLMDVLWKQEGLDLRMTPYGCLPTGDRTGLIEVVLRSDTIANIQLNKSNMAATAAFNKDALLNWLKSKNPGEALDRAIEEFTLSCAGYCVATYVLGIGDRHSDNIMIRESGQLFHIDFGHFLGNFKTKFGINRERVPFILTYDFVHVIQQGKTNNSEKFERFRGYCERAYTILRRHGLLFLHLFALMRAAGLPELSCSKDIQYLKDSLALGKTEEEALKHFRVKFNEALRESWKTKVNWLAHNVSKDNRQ
Chain of PI3Kδ (p110δ/p85α) (P27986 whole entry partner, species assumed): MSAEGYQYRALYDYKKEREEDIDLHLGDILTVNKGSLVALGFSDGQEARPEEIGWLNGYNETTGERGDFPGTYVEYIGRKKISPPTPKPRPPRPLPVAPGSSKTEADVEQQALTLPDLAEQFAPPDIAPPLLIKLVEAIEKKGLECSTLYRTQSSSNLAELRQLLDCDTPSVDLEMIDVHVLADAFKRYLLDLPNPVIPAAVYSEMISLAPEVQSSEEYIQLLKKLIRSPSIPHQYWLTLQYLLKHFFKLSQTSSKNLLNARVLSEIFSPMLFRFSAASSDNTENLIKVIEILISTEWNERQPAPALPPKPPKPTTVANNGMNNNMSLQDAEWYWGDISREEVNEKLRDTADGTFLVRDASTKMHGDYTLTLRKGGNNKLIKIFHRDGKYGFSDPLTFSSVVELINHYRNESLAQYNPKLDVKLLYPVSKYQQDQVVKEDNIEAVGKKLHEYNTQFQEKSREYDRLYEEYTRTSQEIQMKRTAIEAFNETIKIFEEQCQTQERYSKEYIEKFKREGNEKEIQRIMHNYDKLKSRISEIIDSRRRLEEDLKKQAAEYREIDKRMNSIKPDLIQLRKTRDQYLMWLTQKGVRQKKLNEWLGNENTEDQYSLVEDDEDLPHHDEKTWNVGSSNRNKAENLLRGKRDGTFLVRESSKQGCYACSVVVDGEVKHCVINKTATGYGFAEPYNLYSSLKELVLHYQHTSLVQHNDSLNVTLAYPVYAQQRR

The target in this assay is PI3Kδ (p110δ/p85α) (Homo sapiens (Human), UniProt O00329). Kind of assay: PI3Kδ Scintillation Proximity Assay (Assay A3). The format is biochemical. To be noted: column b, Assay A3 (SPA), 20 μM ATP. From the text:
[γ-^33P]ATP (10 mCi/mL) was purchased from Perkin-Elmer (Waltham, Mass.). Lipid kinase substrate, D-myo-Phosphatidylinositol 4,5-bisphosphate (PtdIns(4,5)P2)D (+)-sn-1,2-di-O-octanoylglyceryl, 3-O-phospho linked (PIP2), CAS 204858-53-7, was purchased from Echelon Biosciences (Salt Lake City, Utah). PI3Kδ (p110δ/p85α) was purchased from Millipore (Bedford, Mass.). ATP, MgCl2, DTT, EDTA, MOPS and CHAPS were purchased from Sigma-Aldrich (St. Louis, Mo.). Wheat Germ Agglutinin (WGA) YSi SPA Scintillation Beads was purchased from GE healthcare life sciences (Piscataway, N.J.).
The kinase reaction was conducted in polystyrene 384-well matrix white plate from Thermo Fisher Scientific in a final volume of 25 μL. Inhibitors were first diluted serially in DMSO and added to the plate wells before the addition of other reaction components. The final concentration of DMSO in the assay was 0.5%. The PI3K assays were carried out at room temperature in 20 mM MOPS, pH 6.7, 10 mM MgCl2, 5 mM DTT and CHAPS 0.03%. Reactions were initiated by the addition of ATP, the final reaction mixture consisted of 20 μM PIP2, 20 μM ATP, 0.2 μCi [γ-^33P] ATP, 4 nM PI3Kδ. Reactions were incubated for 210 min and terminated by the addition of 40 μL SPA beads suspended in quench buffer: 150 mM potassium phosphate pH 8.0, 20% glycerol. 25 mM EDTA, 400 μM ATP. The final concentration of SPA beads was 1.0 mg/mL. After the plate sealing, plates were shaken overnight at room temperature and centrifuged at 1800 rpm for 10 minutes, the radioactivity of the product was determined by scintillation counting on Topcount (Perkin-Elmer). IC50 determination was performed by fitting the curve of percent control activity versus the log of the inhibitor concentration using the GraphPad Prism 3.0 software.
On to `Cc1cccc2nc(C(C)Nc3nc(N)nc4[nH]cnc34)c(-c3ccccc3)c(=O)n12` (stereo not drawn) [Example 50, 2-{1-[(2-Amino-9H-purin-6-yl)amino]ethyl}-6-methyl-3-phenyl-4H-pyrido[1,2-a]pyrimidin-4-one trifluoroacetic acid salt], for which the pIC50 was above 7.30.

`Cc1cccc(-c2c(C(C)Nc3ncnc4[nH]cnc34)nc3cccc(C)n3c2=O)c1` (stereo not drawn) [Example 51, 6-Methyl-3-(3-methylphenyl)-2-[1-(9H-purin-6-ylamino)ethyl]-4H-pyrido[1,2-a]pyrimidin-4-one trifluoroacetic acid salt] showed a pIC50 of 6.30 to 7.00.

For the compound `Cc1cccc(-c2c(C(C)Nc3nc(N)nc4[nH]cnc34)nc3cccc(C)n3c2=O)c1` (stereo not drawn) [Example 52, 2-{1-[(2-Amino-9H-purin-6-yl)amino]ethyl}-6-methyl-3-(3-methylphenyl)-4H-pyrido[1,2-a]pyrimidin-4-one trifluoroacetic acid salt], the pIC50 is above 7.30.

`Cc1cccc2nc(C(C)Nc3ncnc4[nH]cnc34)c(-c3cccc(Cl)c3)c(=O)n12` (stereo not drawn) [Example 53, 3-(3-Chlorophenyl)-6-methyl-2-[1-(9H-purin-6-ylamino)ethyl]-4H-pyrido[1,2-a]pyrimidin-4-one trifluoroacetic acid salt] had a pIC50 of 6.30 to 7.00.

In turn, `Cc1cccc2nc(C(C)Nc3nc(N)nc4[nH]cnc34)c(-c3cccc(Cl)c3)c(=O)n12` (stereo not drawn) [Example 54, 2-{1-[(2-Amino-9H-purin-6-yl)amino]ethyl}-3-(3-chlorophenyl)-6-methyl-4H-pyrido[1,2-a]pyrimidin-4-one trifluoroacetic acid salt] showed a pIC50 above 7.30.

The compound `Cc1cccc2nc(C(C)Nc3ncnc4[nH]cnc34)c(-c3ccc(Cl)cc3)c(=O)n12` (stereo not drawn) [Example 55, 3-(4-Chlorophenyl)-6-methyl-2-[1-(9H-purin-6-ylamino)ethyl]-4H-pyrido[1,2-a]pyrimidin-4-one trifluoroacetic acid salt] showed a negative-log IC50 (pIC50) below 6.30.

The compound `Cc1cccc2nc(C(C)Nc3nc(N)nc4[nH]cnc34)c(-c3ccc(Cl)cc3)c(=O)n12` (stereo not drawn) [Example 56, 2-{1-[(2-Amino-9H-purin-6-yl)amino]ethyl}-3-(4-chlorophenyl)-6-methyl-4H-pyrido[1,2-a]pyrimidin-4-one trifluoroacetic acid salt] showed a pIC50 below 6.30.

As to `Cc1cccc2nc(C(C)Nc3ncnc4[nH]cnc34)c(-c3ccccc3Cl)c(=O)n12` (stereo not drawn) [Example 57, 3-(2-Chlorophenyl)-6-methyl-2-[1-(9H-purin-6-ylamino)ethyl]-4H-pyrido[1,2-a]pyrimidin-4-one trifluoroacetic acid salt], the pIC50 is above 7.30.

`Cc1cccc2nc(C(C)Nc3nc(N)nc4[nH]cnc34)c(-c3ccccc3Cl)c(=O)n12` (stereo not drawn) [Example 58, 2-{1-[(2-Amino-9#-purin-6-yl)amino]ethyl}-3-(2-chlorophenyl)-6-methyl-4H-pyrido[1,2-a]pyrimidin-4-one trifluoroacetic acid salt] showed a pIC50 above 7.30.

Turning to `Cc1cccc2nc(C(C)Nc3ncnc4[nH]cnc34)c(-c3ccccc3F)c(=O)n12` (stereo not drawn) [Example 59, 3-(2-Fluorophenyl)-6-methyl-2-[1-(9H-purin-6-ylamino)ethyl]-4H-pyrido[1,2-a]pyrimidin-4-one trifluoroacetic acid salt], the pIC50 is above 7.30.

As to `Cc1cccc2nc(C(C)Nc3nc(N)nc4[nH]cnc34)c(-c3ccccc3F)c(=O)n12` (stereo not drawn) [Example 60, 2-{1-[(2-Amino-9#-purin-6-yl)amino]ethyl}-3-(2-fluorophenyl)-6-methyl-4H-pyrido[1,2-a]pyrimidin-4-one trifluoroacetic acid salt], the negative logarithm of the IC50 (pIC50) is above 7.30.

As to `Cc1cccc2nc(C(C)Nc3ncnc4[nH]cnc34)c(-c3ccc(C#N)cc3)c(=O)n12` (stereo not drawn) [Example 61, 4-{6-Methyl-4-oxo-2-[1-(9H-purin-6-ylamino)ethyl]-4H-pyrido[1,2-a]pyrimidin-3-yl}benzonitrile trifluoroacetic acid salt], the pIC50 is below 6.30.
